Measurements: ChEMBL document CHEMBL6078666, “Discovery of Novel Coumarin Pleuromutilin Derivatives as Potent Anti-MRSA Agents” (J Med Chem, 2024)
Values after ≈ are worked out from the molar mass of the structure shown. Active and inactive are the calls of the source. The calls are words filed in the database; no cut-off is given here.

How the values were obtained:
[1] = system: Staphylococcus aureus; experiment: Antibacterial activity against methicillin-resistant Staphylococcus aureus ATCC 33591 assessed as bacterial growth inhibition measured after 20 hrs by broth dilution method; type: functional
[2] = system: Enterococcus faecium; experiment: Antibacterial activity against vancomycin-resistant Enterococcus faecium ATCC 51559 assessed as bacterial growth inhibition measured after 20 hrs by broth dilution method; type: functional
[3] = system: Streptococcus pneumoniae; experiment: Antibacterial activity against penicillin-resistant Streptococcus pneumoniae ATCC 51916 assessed as bacterial growth inhibition measured after 20 hrs by broth dilution method; type: functional
[4] = system: Streptococcus pneumoniae; experiment: Antibacterial activity against penicillin-intermediate Streptococcus pneumoniae ATCC 49619 assessed as bacterial growth inhibition measured after 20 hrs by broth dilution method; type: functional
[5] = system: Staphylococcus aureus; experiment: Ratio of MBC to MIC against Staphylococcus aureus ATCC 43300; type: functional
[6] = system: Staphylococcus epidermidis; experiment: Ratio of MBC to MIC against Staphylococcus epidermidis ATCC 51625; type: functional
[7] = system: Enterococcus faecium; experiment: Ratio of MBC to MIC against vancomycin-resistant Enterococcus faecium ATCC 51559; type: functional
[8] = system: Enterococcus faecium; experiment: Ratio of MBC to MIC against vancomycin-resistant Enterococcus faecium ATCC 700221; type: functional
[9] = system: Streptococcus pneumoniae; experiment: Ratio of MBC to MIC against penicillin-resistant Streptococcus pneumoniae ATCC 51916; type: functional
[10] = system: Staphylococcus aureus; experiment: Antibacterial activity against methicillin-resistant Staphylococcus aureus clinical isolate 202311772 assessed as bacterial growth inhibition measured after 20 hrs by broth dilution method; type: functional
[11] = system: Staphylococcus aureus; experiment: Antibacterial activity against methicillin-resistant Staphylococcus aureus clinical isolate 202313160 assessed as bacterial growth inhibition measured after 20 hrs by broth dilution method; type: functional
[12] = system: Staphylococcus aureus; experiment: Antibacterial activity against methicillin-resistant Staphylococcus aureus clinical isolate 202405157 assessed as bacterial growth inhibition measured after 20 hrs by broth dilution method; type: functional
[13] = system: Enterococcus faecium; experiment: Antibacterial activity against vancomycin-resistant Enterococcus faecium clinical isolate 202308456 assessed as bacterial growth inhibition measured after 20 hrs by broth dilution method; type: functional
[14] = system: Staphylococcus aureus; experiment: Ratio of MBC to MIC against methicillin-resistant Staphylococcus aureus clinical isolate 202311772; type: functional
[15] = system: Staphylococcus aureus; experiment: Ratio of MBC to MIC against methicillin-resistant Staphylococcus aureus clinical isolate 202405157; type: functional
[16] = system: Staphylococcus epidermidis; experiment: Ratio of MBC to MIC against methicillin-resistant Staphylococcus epidermidis clinical isolate 202409139; type: functional
[17] = system: Staphylococcus aureus; experiment: Bactericidal activity against methicillin-resistant Staphylococcus aureus ATCC 33591 measured upto 24 hrs by time kill assay; type: functional, organism-based
[18] = system: Staphylococcus aureus; experiment: Drug resistance, ratio of MIC for Staphylococcus aureus ATCC 33591 after 8 days to MIC for methicillin-resistant Staphylococcus aureus ATCC 33591 after initial exposure; type: functional; settings: time 8 day
[19] = system: Staphylococcus aureus; experiment: Antibacterial activity against Staphylococcus aureus ATCC 33591 measured after 9 days; type: functional, organism-based; settings: time 9.0 day
[20] = system: Staphylococcus aureus; experiment: Antibacterial activity against Staphylococcus aureus ATCC 25923 assessed as reduction in GFP expression at 1 to 4 times MIC measured after 1 hr by fluorescence microscopy based analysis; type: functional, organism-based
[21] = system: Staphylococcus aureus; experiment: Induction of morphological changes in methicillin-resistant Staphylococcus aureus ATCC 33591 assessed as appearance of shrinked cell surface at 1 time MIC measured after 4 hrs by SEM analysis; type: functional, organism-based
[22] = system: HepG2; experiment: Cytotoxicity against human HepG2 cells at 0 to 40 ug/ml measured after 24 hrs by MTT assay relative to control; type: functional; settings: dose 0-40 µg/ml
[23] = Hemolytic activity in rabbit RBC assessed as hemolysis rate at 200 ug/ml incubated for 1 hr by microplate reader analysis relative to control; type: toxicity, cell-based, Oryctolagus cuniculus, Erythrocyte; settings: rabbit red blood cells, at 200 µg/mL, read-out: Activity
[24] = system: Staphylococcus aureus; experiment: Antibacterial activity against methicillin-resistant Staphylococcus aureus ATCC 33591 infected in female C57 mouse systemic infection model assessed as survival rate at 20 mg/kg, po measured upto 7 days relative to control; type: functional; settings: ATCC 33591, 168 h, time <= 7 day
[25] = system: Staphylococcus aureus; experiment: Antibacterial activity against methicillin-resistant Staphylococcus aureus ATCC 33591 infected in female C57 mouse systemic infection model assessed as effective dose; type: functional
[26] = system: Staphylococcus aureus; experiment: (§1) Antibacterial activity against methicillin-resistant Staphylococcus aureus ATCC 33591 infected in female C57 mouse systemic infection model assessed as reduction in bacterial load in lung at 40 mg/kg, iv administered twice daily and measured after 7 days; type: functional; settings: time 7 day
[27] = system: Staphylococcus aureus; experiment: Antibacterial activity against methicillin-resistant Staphylococcus aureus ATCC 33591 infected in female C57 mouse systemic infection model assessed as reduction in bacterial load in kidney at 40 mg/kg, iv administered twice daily and measured after 7 days; type: functional; settings: time 7 day
[28] = system: Staphylococcus aureus; experiment: (§2) Antibacterial activity against methicillin-resistant Staphylococcus aureus ATCC 33591 infected in female C57 mouse systemic infection model assessed as reduction in bacterial load in heart at 40 mg/kg, iv administered twice daily and measured after 7 days; type: functional; settings: time 7 day
[29] = MRT in mouse at 5 mg/kg, iv measured after 8 hrs; type: ADME, organism-based; settings: in vivo
[30] = Volume of distribution at steady state in mouse at 5 mg/kg, iv measured after 8 hrs; type: ADME, organism-based; settings: in vivo, read-out: Vdss
[31] = system: Staphylococcus aureus; experiment: as §2, with “number of inflammatory cells” for “bacterial load”, “days by H and E staining based analysis” for “days”; type: functional, organism-based; settings: time 7.0 day
[32] = system: Staphylococcus aureus; experiment: as §1, with “inflammatory cell aggregation” for “bacterial load”, “days by H and E staining based analysis” for “days”; type: functional, organism-based; settings: time 7.0 day
[33] = system: Staphylococcus aureus; experiment: (§3) Antibacterial activity against methicillin-resistant Staphylococcus aureus ATCC 33591 infected in female C57 mouse systemic infection model assessed as reduction of edema in kidney at 40 mg/kg, iv administered twice daily and measured after 7 days by H and E staining based analysis; type: functional, organism-based; settings: time 7.0 day
[34] = system: Staphylococcus aureus; experiment: as §3, with “in inflammatory infiltration” for “of edema”; type: functional, organism-based; settings: time 7.0 day
[35] = system: Staphylococcus aureus; experiment: as §3, with “reduction” for “reduction of edema”, “local blood cell accumulation in spleen” for “kidney”; type: functional, organism-based; settings: time 7.0 day
[36] = system: Staphylococcus aureus; experiment: as §3, with “reduction” for “reduction of edema”, “distorted myocardial fibers in heart” for “kidney”; type: functional, organism-based; settings: time 7.0 day
[37] = system: Staphylococcus aureus; experiment: Antibacterial activity against methicillin-resistant Staphylococcus aureus ATCC 33591 infected in female C57 mouse systemic infection model assessed as reduction in vacuolation in heart at 40 mg/kg, iv administered twice daily and measured after 7 days by H and E staining based analysis; type: functional, organism-based; settings: time 7.0 day

C=C[C@]1(C)C[C@@H](OC(=O)CSc2cc(=O)oc3cc(OC)ccc23)[C@]2(C)[C@H](C)CC[C@]3(CCC(=O)[C@H]32)[C@@H](C)[C@@H]1O
MIC [1]: 0.031 µg/mL (≈ 0.0545 µM) | MIC [2]: 0.031 µg/mL (≈ 0.0545 µM) | MIC [3]: 0.063 µg/mL (≈ 0.111 µM) | MIC [4]: 0.031 µg/mL (≈ 0.0545 µM) | Ratio [5]: >4 | Ratio [6]: 4 | Ratio [7]: 1 | Ratio [8]: 1 | Ratio [9]: 2 | MIC [10]: 0.031 µg/mL (≈ 0.0545 µM) | MIC [11]: 0.063 µg/mL (≈ 0.111 µM) | MIC [12]: 0.063 µg/mL (≈ 0.111 µM) | MIC [13]: 0.031 µg/mL (≈ 0.0545 µM) | Ratio [14]: 1 | Ratio [15]: 2 | Ratio [16]: 2 | Activity [17]: Dose-dependent-effect | fold change (FC) [18]: 4 | Activity [19]: inactive | Activity [20]: Active | Activity [21]: Active | Activity [22]: >85% | hemolysis at 1 h, 200 ug/ml [23]: < 8% | survival at 20 mg/kg [24]: 60% | ED50 [25]: 11.2 mg/kg | Activity [26]: 2.21 log10CFU/g | Activity [27]: 1.91 log10CFU/g | Activity [28]: 3.33 log10CFU/g | MRT [29]: 36.6 min | Vd [30]: 1.76 L/kg | Activity [31]: Active | Activity [32]: Active | Activity [33]: Active | Activity [34]: Active | Activity [35]: Active | Activity [36]: Active | Activity [37]: Active
